Experimental data from patent US9708318B2, “Bicyclic heterocycles as FGFR4 inhibitors” (Incyte Corporation, priority 2015, dated 2017).
Like-named read-outs stand apart in the source and are kept apart here.

Legend:
[1] = biological target: FGFR4 (Homo sapiens (Human), UniProt P22455); assay: FGFR Enzymatic Assay (FRET peptide phosphorylation), FGFR4; assay type: biochemical; details: for FGFR1/FGFR4 IC50 ratio / FGFR2/FGFR4 IC50 ratio / FGFR3/FGFR4 IC50 ratio: FGFR4 selectivity
Experimental: (§1) The inhibitor potency of the exemplified compounds was measured in an enzyme assay that measures peptide phosphorylation using FRET measurements to detect product formation. Inhibitors were serially diluted in DMSO and a volume of 0.5 μL was transferred to the wells of a 384-well plate.
(§2) The enzymes were purchased from Millipore or Invitrogen.
(§3) GraphPad prism3 was used to analyze the data.

[2] = biological target: FGFR1 (Homo sapiens (Human), UniProt P11362); assay: FGFR Enzymatic Assay (FRET peptide phosphorylation), FGFR1
[3] = biological target: FGFR2 (Homo sapiens (Human), UniProt P21802); assay: FGFR Enzymatic Assay (FRET peptide phosphorylation), FGFR2; assay type: biochemical
Experimental: as §1, §2, §3

[4] = biological target: FGFR3 enzyme (Homo sapiens (Human), UniProt P22607); assay: FGFR Enzymatic Assay (FRET peptide phosphorylation), FGFR3; assay type: biochemical; details: for FGFR1/FGFR3 IC50 ratio / FGFR4/FGFR3 IC50 ratio: FGFR3 selectivity; for IC50: read-out: FGFR3 IC50
Experimental: as §1, §3

[5] = pre-incubated for 5 to 10 minutes
[6] = FGFR1 IC50 (nM), pre-incubated for 5 to 10 minutes
[7] = FGFR1 IC50 (nM), pre-incubated for 4 hours

Sequence of FGFR3 enzyme (P22607 23-806): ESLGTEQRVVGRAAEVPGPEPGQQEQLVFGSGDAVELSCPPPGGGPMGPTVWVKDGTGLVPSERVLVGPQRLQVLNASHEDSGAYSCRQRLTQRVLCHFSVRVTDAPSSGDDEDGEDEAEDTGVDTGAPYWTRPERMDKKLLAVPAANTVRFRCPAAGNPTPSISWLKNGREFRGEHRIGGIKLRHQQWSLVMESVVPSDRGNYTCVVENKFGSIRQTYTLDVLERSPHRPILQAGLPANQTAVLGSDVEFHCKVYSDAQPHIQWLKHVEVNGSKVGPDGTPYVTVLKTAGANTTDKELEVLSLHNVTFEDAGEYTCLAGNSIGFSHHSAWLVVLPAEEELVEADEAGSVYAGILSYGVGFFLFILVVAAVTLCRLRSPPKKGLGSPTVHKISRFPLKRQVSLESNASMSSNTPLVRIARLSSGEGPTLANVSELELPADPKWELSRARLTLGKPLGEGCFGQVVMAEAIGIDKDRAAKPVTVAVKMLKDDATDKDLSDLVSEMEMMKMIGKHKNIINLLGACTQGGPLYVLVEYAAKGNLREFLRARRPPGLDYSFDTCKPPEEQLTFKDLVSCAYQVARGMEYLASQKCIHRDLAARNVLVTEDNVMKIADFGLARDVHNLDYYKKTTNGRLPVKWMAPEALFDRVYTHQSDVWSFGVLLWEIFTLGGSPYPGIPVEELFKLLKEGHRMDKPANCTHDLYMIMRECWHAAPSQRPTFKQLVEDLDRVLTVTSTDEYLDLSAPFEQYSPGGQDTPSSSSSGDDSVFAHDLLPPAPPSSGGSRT
Sequence of FGFR4 (P22455 22-802): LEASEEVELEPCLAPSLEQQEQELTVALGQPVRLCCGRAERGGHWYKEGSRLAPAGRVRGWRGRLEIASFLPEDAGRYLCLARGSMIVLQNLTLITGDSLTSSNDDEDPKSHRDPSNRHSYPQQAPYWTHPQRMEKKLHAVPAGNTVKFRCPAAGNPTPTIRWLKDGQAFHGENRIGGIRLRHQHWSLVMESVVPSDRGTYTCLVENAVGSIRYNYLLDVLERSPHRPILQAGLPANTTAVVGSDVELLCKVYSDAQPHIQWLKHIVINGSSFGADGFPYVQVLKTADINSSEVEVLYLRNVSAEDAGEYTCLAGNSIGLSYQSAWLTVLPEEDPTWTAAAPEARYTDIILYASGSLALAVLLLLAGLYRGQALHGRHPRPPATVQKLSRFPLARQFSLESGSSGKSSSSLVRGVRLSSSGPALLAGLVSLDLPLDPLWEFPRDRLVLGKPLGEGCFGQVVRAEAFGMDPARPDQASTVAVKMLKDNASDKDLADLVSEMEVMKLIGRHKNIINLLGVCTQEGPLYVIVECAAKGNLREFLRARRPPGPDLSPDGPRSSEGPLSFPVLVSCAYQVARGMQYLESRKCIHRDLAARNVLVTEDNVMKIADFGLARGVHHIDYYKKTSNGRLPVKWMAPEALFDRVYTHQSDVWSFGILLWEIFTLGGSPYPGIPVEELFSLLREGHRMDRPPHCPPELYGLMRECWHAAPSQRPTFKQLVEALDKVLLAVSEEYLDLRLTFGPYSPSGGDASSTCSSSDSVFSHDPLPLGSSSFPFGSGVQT
Sequence of FGFR2 (P21802 22-821): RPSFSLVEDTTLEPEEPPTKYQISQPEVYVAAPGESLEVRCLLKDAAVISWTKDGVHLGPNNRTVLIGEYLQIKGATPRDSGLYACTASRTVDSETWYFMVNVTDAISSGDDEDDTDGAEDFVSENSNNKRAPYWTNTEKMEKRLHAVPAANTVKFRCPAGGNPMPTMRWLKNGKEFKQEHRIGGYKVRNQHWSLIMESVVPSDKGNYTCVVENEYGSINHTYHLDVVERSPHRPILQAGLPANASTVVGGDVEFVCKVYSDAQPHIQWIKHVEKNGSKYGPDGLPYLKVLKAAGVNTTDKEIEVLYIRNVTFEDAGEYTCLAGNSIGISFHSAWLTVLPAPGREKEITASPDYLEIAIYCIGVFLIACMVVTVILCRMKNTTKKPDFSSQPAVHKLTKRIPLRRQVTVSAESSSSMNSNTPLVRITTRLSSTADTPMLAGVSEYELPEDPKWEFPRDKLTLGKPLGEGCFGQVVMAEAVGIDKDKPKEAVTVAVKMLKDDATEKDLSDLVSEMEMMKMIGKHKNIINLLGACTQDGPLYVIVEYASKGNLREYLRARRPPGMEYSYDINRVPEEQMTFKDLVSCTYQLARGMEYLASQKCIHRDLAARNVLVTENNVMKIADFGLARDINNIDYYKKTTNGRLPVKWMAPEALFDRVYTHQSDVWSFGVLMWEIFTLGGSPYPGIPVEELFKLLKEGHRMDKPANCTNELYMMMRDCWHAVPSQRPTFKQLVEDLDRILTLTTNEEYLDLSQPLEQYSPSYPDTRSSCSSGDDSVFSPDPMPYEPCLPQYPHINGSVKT
Sequence of FGFR1 (P11362 22-822): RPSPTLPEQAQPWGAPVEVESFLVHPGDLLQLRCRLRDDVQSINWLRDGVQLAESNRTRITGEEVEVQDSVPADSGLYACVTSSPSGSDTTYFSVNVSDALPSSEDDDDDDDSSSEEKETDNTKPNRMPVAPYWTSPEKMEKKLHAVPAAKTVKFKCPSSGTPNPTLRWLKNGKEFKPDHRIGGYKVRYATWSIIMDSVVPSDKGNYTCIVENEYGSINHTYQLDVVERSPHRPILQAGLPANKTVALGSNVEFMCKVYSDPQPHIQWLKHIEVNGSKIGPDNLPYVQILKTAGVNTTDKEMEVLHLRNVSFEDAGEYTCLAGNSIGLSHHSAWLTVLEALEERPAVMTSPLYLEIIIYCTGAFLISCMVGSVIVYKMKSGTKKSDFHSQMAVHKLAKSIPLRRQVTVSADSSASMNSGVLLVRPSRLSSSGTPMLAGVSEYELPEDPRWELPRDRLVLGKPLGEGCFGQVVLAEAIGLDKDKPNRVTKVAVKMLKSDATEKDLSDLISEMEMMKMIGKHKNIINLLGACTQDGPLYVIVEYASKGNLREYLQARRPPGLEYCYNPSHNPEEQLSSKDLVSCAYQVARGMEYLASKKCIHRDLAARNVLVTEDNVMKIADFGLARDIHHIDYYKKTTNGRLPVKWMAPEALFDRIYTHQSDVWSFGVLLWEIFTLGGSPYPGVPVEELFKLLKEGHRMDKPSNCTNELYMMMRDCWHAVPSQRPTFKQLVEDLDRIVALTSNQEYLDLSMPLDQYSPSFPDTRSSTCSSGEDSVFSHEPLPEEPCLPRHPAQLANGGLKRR

SMILES	IC50 ([1]; pre-incubated for 4 hours) [nM]	IC50 [2, 7] [nM]	IC50 ([3]; pre-incubated for 4 hours) [nM]	FGFR1/FGFR3 IC50 ratio ([4]; pre-incubated for 4 hours)	IC50 ([4]; pre-incubated for 4 hours) [nM]	FGFR4/FGFR3 IC50 ratio ([4]; pre-incubated for 4 hours)	FGFR1/FGFR4 IC50 ratio [1, 5]	FGFR2/FGFR4 IC50 ratio [1, 5]	FGFR3/FGFR4 IC50 ratio [1, 5]	FGFR1/FGFR4 IC50 ratio ([1]; pre-incubated for 4 hours)	FGFR2/FGFR4 IC50 ratio ([1]; pre-incubated for 4 hours)	FGFR3/FGFR4 IC50 ratio ([1]; pre-incubated for 4 hours)	IC50 [1, 5] [nM]	IC50 [2, 6] [nM]	IC50 [3, 5] [nM]	IC50 [4, 5] [nM]	IC50 ([2]; read-out: FGFR1 IC50, pre-incubated for 4 hours) [nM]
COc1cncc(-c2cc3c(cn2)CN(c2c(F)c(OC)cc(OC)c2F)C(=O)C32CC2)c1 [Example 10, 2′-(2,6-difluoro-3,5-dimethoxyphenyl)-6′-(5-methoxypyridin-3-yl)-1′H-spiro[cyclopropane-1,4′-[2,7]naphthyridin]-3′(2′H)-one]	< 10	30 to 200	10 to 30	>1	10 to 30		>25	>10	>10	>25	>25	>10	< 10	30 to 200	10 to 30	10 to 30	
CCN1C(=O)N(c2cc(OC)cc(C(=O)NC)c2F)Cc2cnc(-c3ccc(C4(C#N)CCC4)nc3)cc21 [Example 28, 3-(7-(6-(1-cyanocyclobutyl)pyridin-3-yl)-1-ethyl-2-oxo-1,2-dihydropyrido[4,3-d]pyrimidin-3(4H)-yl)-2-fluoro-5-methoxy-N-methylbenzamide]	> 200		30 to 200		30 to 200												> 200
COc1cc(OC)c(F)c(N2Cc3cnc(-c4cn(C)nc4C)cc3N(C[C@H]3CCOC3)C2=O)c1F [Example 108, (R)-3-(2,6-difluoro-3,5-dimethoxyphenyl)-7-(1,3-dimethyl-1H-pyrazol-4-yl)-1-((tetrahydrofuran-3-yl)methyl)-3,4-dihydropyrido[4,3-d]pyrimidin-2(1H)-one]	30 to 200	30 to 200	10 to 30	>3	10 to 30	>3											
COc1cc(OC)c(F)c(N2Cc3cnc(-c4cncc(F)c4)cc3C3(CC3)C2=O)c1F [Example 5, 2′-(2,6-difluoro-3,5-dimethoxyphenyl)-6′-(5-fluoropyridin-3-yl)-1′H-spiro[cyclopropane-1,4′-[2,7]naphthyridin]-3′(2′H)-one]	< 10	30 to 200	10 to 30	>3	10 to 30		>10	>5	>4	>10	>5	>1	< 10	30 to 200	10 to 30	10 to 30	

Continued, in another order:

IC50 ([1]; pre-incubated for 4 hours) [nM]	IC50 [2, 7] [nM]	IC50 ([3]; pre-incubated for 4 hours) [nM]	FGFR1/FGFR3 IC50 ratio ([4]; pre-incubated for 4 hours)	IC50 ([4]; pre-incubated for 4 hours) [nM]	FGFR4/FGFR3 IC50 ratio ([4]; pre-incubated for 4 hours)	SMILES	FGFR1/FGFR4 IC50 ratio [1, 5]	FGFR2/FGFR4 IC50 ratio [1, 5]	FGFR3/FGFR4 IC50 ratio [1, 5]	FGFR1/FGFR4 IC50 ratio ([1]; pre-incubated for 4 hours)	FGFR2/FGFR4 IC50 ratio ([1]; pre-incubated for 4 hours)	FGFR3/FGFR4 IC50 ratio ([1]; pre-incubated for 4 hours)	IC50 [1, 5] [nM]	IC50 [2, 6] [nM]	IC50 [3, 5] [nM]	IC50 [4, 5] [nM]	IC50 ([2]; read-out: FGFR1 IC50, pre-incubated for 4 hours) [nM]
10 to 30	30 to 200	< 10	>5	< 10	>5	CCN1C(=O)N(c2c(F)c(OC)cc(OC)c2F)Cc2cnc(-c3ccc(CC#N)cc3)cc21 [Example 180, 2-(4-(3-(2,6-difluoro-3,5-dimethoxyphenyl)-1-ethyl-2-oxo-1,2,3,4-tetrahydropyrido[4,3-d]pyrimidin-7-yl)phenyl)acetonitrile]											
30 to 200	30 to 200	10 to 30	>10	< 10	>10	COc1cc(OC)c(F)c(N2Cc3cnc(-c4cn(C)nc4C)cc3N(c3ccncn3)C2=O)c1F [Example 45, 3-(2,6-difluoro-3,5-dimethoxyphenyl)-7-(1,3-dimethyl-1H-pyrazol-4-yl)-1-pyrimidin-4-yl-3,4-dihydropyrido[4,3-d]pyrimidin-2(1H)-one]											
30 to 200	30 to 200	< 10	>5	< 10	>5	COc1cc(OC)c(F)c(N2Cc3cnc(-c4cn(C)nc4C)cc3N(C3CCOC3)C2=O)c1F (stereo not shown) [Example 33, 3-(2,6-difluoro-3,5-dimethoxyphenyl)-7-(1,3-dimethyl-1H-pyrazol-4-yl)-1-(tetrahydrofuran-3-yl)-3,4-dihydropyrido[4,3-d]pyrimidin-2(1H)-one]											
